Source: patent US20160297833A1, “THIENOPYRIMIDINES AS MKNK1 AND MKNK2 INHIBITORS” (BAYER PHARMA AKTIENGESELLSCHAFT, priority 2013, published 2016)

molecular target: T1, human full-length MKNK1 (Homo sapiens, UniProt Q9BUB5, T385D); assay: MKNK1 kinase high ATP assay (TR-FRET); format: biochemical; settings: Table 1; MKNK1 kinase high ATP assay, 2 mM ATP; read-out: MKNK1 IC50
T1 construct: GST (N); purchased Carna Biosciences 02-145; host or cells: insect cells (baculovirus expression system)
Outline: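 Full-length human MKNK1 (T385D) preincubated 15 min at 22 °C with compound in HEPES pH 7.5/MgCl2/DTT buffer; reaction with 2 mM ATP (final) and 0.06 μM biotinylated peptide (final), 30 min at 22 °C.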

T1 sequence (Q9BUB5 1-424 isoform Q9BUB5-2 T344D): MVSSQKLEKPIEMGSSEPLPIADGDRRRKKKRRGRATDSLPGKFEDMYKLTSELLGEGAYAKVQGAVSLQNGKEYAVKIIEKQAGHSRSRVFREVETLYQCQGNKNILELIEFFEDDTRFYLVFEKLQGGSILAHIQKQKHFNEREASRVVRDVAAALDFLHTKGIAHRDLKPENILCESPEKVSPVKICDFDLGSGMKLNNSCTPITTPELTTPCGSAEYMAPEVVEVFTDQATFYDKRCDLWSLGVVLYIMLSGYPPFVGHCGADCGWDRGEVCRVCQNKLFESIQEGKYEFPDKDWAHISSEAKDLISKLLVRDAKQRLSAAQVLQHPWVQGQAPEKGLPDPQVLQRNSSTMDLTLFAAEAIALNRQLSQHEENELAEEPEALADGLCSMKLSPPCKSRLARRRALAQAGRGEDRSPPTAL

| IC50 [nM] | Compound |
| --- | --- |
| 5.2 | C[C@@H](N)COc1cc2[nH]ncc2cc1Nc1ncnc2sc3c(c12)CC[C@H](C(=O)N1CCOC[C@@H]1C)C3 [Example 149, {(7S)-4-[(6-{[(2R)-2-Aminopropyl]oxy}-1H-indazol-5-yl)amino]-5,6,7,8-tetrahydro[1]benzothieno[2,3-d]pyrimidin-7-yl}[(3S)-3-methylmorpholin-4-yl]methanone] |
| 39.6 | CN(C)CCN(C)c1cc2[nH]ncc2cc1Nc1ncnc2sc3c(c12)CC[C@H](C(=O)N(C)C)C3 [Example 151, (7S)-4-[(6-{[2-(Dimethylamino)ethyl](methyl)amino}-1H-indazol-5-yl)amino]-N,N-dimethyl-5,6,7,8-tetrahydro[1]benzothieno[2,3-d]pyrimidine-7-carboxamide] |
| 22.9 | CN(C)C1CCN(c2cc3[nH]ncc3cc2Nc2ncnc3sc4c(c23)CC[C@H](C(=O)N2C[C@H]3C[C@@H]2CO3)C4)CC1 [Example 154, [(7S)-4-({6-[4-(Dimethylamino)piperidin-1-yl]-1H-indazol-5-yl}amino)-5,6,7,8-tetrahydro[1]benzothieno[2,3-d]pyrimidin-7-yl][(1R,4R)-2-oxa-5-azabicyclo[2.2.1]hept-5-yl]methanone] |
| 7.6 | CC(C)N(C)C(=O)[C@H]1CCc2c(sc3ncnc(Nc4cc5cn[nH]c5cc4N4CCC(N(C)C)CC4)c23)C1 [Example 155, (7S)-4-({6-[4-(Dimethylamino)piperidin-1-yl]-1H-indazol-5-yl}amino)-N-methyl-N-(propan-2-yl)-5,6,7,8-tetrahydro[1]benzothieno[2,3-d]pyrimidine-7-carboxamide] |
| 10.7 | CCCN(C)C(=O)[C@H]1CCc2c(sc3ncnc(Nc4cc5cn[nH]c5cc4N4CCC(N(C)C)CC4)c23)C1 [Example 156, (7S)-4-({6-[4-(Dimethylamino)piperidin-1-yl]-1H-indazol-5-yl}amino)-N-methyl-N-propyl-5,6,7,8-tetrahydro[1]benzothieno[2,3-d]pyrimidine-7-carboxamide] |
| 1.2 | COc1cc2[nH]ncc2cc1Nc1ncnc2sc3c(c12)CC[C@H](C(=O)N1C[C@@H](C)O[C@@H](C)C1)C3 [Example 161, [(2R,6S)-2,6-dimethylmorpholin-4-yl]{(7S)-4-[(6-methoxy-1H-indazol-5-yl)amino]-5,6,7,8-tetrahydro[1]benzothieno[2,3-d]pyrimidin-7-yl}methanone] |
| 11.6 | C[C@@H]1CN(C(=O)[C@H]2CCc3c(sc4ncnc(Nc5ccc6[nH]ncc6c5)c34)C2)C[C@H](C)O1 [Example 162, [(2R,6S)-2,6-dimethylmorpholin-4-yl][(7S)-4-(1H-indazol-5-ylamino)-5,6,7,8-tetrahydro[1]benzothieno[2,3-d]pyrimidin-7-yl]methanone] |
| 0.6 | COc1cc2[nH]ncc2cc1Nc1ncnc2sc3c(c12)CC[C@H](C(=O)N1CC(F)C1)C3 [Example 163, (3-fluoroazetidin-1-yl){(7S)-4-[(6-methoxy-1H-indazol-5-yl)amino]-5,6,7,8-tetrahydro[1]benzothieno[2,3-d]pyrimidin-7-yl}methanone] |

Further lines, the compound ahead of its results:

| Compound | IC50 [nM] |
| --- | --- |
| C[C@@H]1COCCN1C(=O)[C@H]1CCc2c(sc3ncnc(Nc4cc5cn[nH]c5cc4OC[C@@H](C)N)c23)C1 [Example 150, {(7S)-4-[(6-{[(2R)-2-Aminopropyl]oxy}-1H-indazol-5-yl)amino]-5,6,7,8-tetrahydro[1]benzothieno[2,3-d]pyrimidin-7-yl}[(3R)-3-methylmorpholin-4-yl]methanone] | 7.3 |
| C[C@H](CN)Oc1cc2[nH]ncc2cc1Nc1ncnc2sc3c(c12)CC[C@H](C(=O)N(C)C)C3 [Example 152, (7S)-4-[(6-{[(2R)-1-Aminopropan-2-yl]oxy}-1H-indazol-5-yl)amino]-N,N-dimethyl-5,6,7,8-tetrahydro[1]benzothieno[2,3-d]pyrimidine-7-carboxamide] | 0.6 |
| CN(C)C1CCN(c2cc3[nH]ncc3cc2Nc2ncnc3sc4c(c23)CC[C@H](C(=O)N2C[C@@H]3C[C@H]2CO3)C4)CC1 [Example 153, [(7S)-4-({6-[4-(Dimethylamino)piperidin-1-yl]-1H-indazol-5-yl}amino)-5,6,7,8-tetrahydro[1]benzothieno[2,3-d]pyrimidin-7-yl][(1S,4S)-2-oxa-5-azabicyclo[2.2.1]hept-5-yl]methanone] | 17.5 |
| CCN(CCOC)C(=O)[C@H]1CCc2c(sc3ncnc(Nc4cc5cn[nH]c5cc4N4CCC(N(C)C)CC4)c23)C1 [Example 157, (7S)-4-({6-[4-(Dimethylamino)piperidin-1-yl]-1H-indazol-5-yl}amino)-N-ethyl-N-(2-methoxyethyl)-5,6,7,8-tetrahydro[1]benzothieno[2,3-d]pyrimidine-7-carboxamide] | 21.6 |
| CCN(C)C(=O)[C@H]1CCc2c(sc3ncnc(Nc4cc5cn[nH]c5cc4N4CCC(N(C)C)CC4)c23)C1 [Example 158, (7S)-4-({6-[4-(Dimethylamino)piperidin-1-yl]-1H-indazol-5-yl}amino)-N-ethyl-N-methyl-5,6,7,8-tetrahydro[1]benzothieno[2,3-d]pyrimidine-7-carboxamide] | 10 |
| CCCOc1cc2[nH]ncc2cc1Nc1ncnc2sc3c(c12)CC[C@H](C(=O)N1CC(O)C1)C3 [Example 159, (3-Hydroxyazetidin-1-yl){(7S)-4-[(6-propoxy-1H-indazol-5-yl)amino]-5,6,7,8-tetrahydro[1]benzothieno[2,3-d]pyrimidin-7-yl}methanone] | 1.9 |
| CC(C)Oc1cc2[nH]ncc2cc1Nc1ncnc2sc3c(c12)CC[C@H](C(=O)N1C[C@@H](C)O[C@@H](C)C1)C3 [Example 160, [(2R,6S)-2,6-dimethylmorpholin-4-yl][(7S)-4-{[6-(propan-2-yloxy)-1H-indazol-5-yl]amino}-5,6,7,8-tetrahydro[1]benzothieno[2,3-d]pyrimidin-7-yl]methanone] | 1.2 |
| COc1cc2[nH]ncc2cc1Nc1ncnc2sc3c(c12)CC[C@H](C(=O)N1CC(F)(F)C1)C3 [Example 164, (3,3-difluoroazetidin-1-yl){(7S)-4-[(6-methoxy-1H-indazol-5-yl)amino]-5,6,7,8-tetrahydro[1]benzothieno[2,3-d]pyrimidin-7-yl}methanone] | 0.7 |
| CN(C)C(=O)[C@H]1CCc2c(sc3ncnc(Nc4cc5cn[nH]c5cc4OCCNC(=O)OC(C)(C)C)c23)C1 [Example 165, tert-butyl {2-[(5-{[(7S)-7-(dimethylcarbamoyl)-5,6,7,8-tetrahydro[1]benzothieno[2,3-d]pyrimidin-4-yl]amino}-1H-indazol-6-yl)oxy]ethyl}carbamate] | 0.2 |
| CN(C)C1CCN(c2cc3[nH]ncc3cc2Nc2ncnc3sc4c(c23)CC[C@H](C(=O)N2CC3(COC3)C2)C4)CC1 [Example 166, [(7S)-4-({6-[4-(dimethylamino)piperidin-1-yl]-1H-indazol-5-yl}amino)-5,6,7,8-tetrahydro[1]benzothieno[2,3-d]pyrimidin-7-yl](2-oxa-6-azaspiro[3.3]hept-6-yl)methanone] | 20.6 |
| CCOc1cc2[nH]ncc2cc1Nc1ncnc2sc3c(c12)CC[C@H](C(=O)N1C[C@@H](C)O[C@@H](C)C1)C3 [Example 167, [(2R,6S)-2,6-dimethylmorpholin-4-yl]{(7S)-4-[(6-ethoxy-1H-indazol-5-yl)amino]-5,6,7,8-tetrahydro[1]benzothieno[2,3-d]pyrimidin-7-yl}methanone] | 0.3 |
